Tested on: formalin-induced pain model in rats
Assay: Formalin pain model, nociceptive behaviors
Type: in vivo, Sprague-Dawley rats
Conditions: Experiment Two
Method: The formalin model is a fast, reliable model used to assess potential analgesics ability to block inflammatory pain. The analgesic effects of test article combinations on pain generation are assayed using the formalin-induced pain model in rats. Adult male Sprague-Dawley rats are administered intraperitoneally study drugs (vehicle, TCA, steroid or TCA/Steroid test article combinations) once daily for 2 days (day −2 and day −1) and 30 minutes prior to the formalin injection day on day 0 (time=0). […] To elicit a pain response, dilute formalin (2% in saline) is injected under the skin of the plantar surface of the right hindpaw. The animal is placed in an observation chamber. The pain response is a characteristic biphasic response pattern of nociceptive behaviors (lifting, licking, and biting of the injected paw). Two distinct periods of nociceptive behaviors/activity are observed and recorded: an early phase (phase I) lasting the first 5-10 min and a late phase (phase II) lasting 20-40 min after the injection of formalin. One hour of data is collected (time spent displaying pain behavior) by a blinded observer using a stopwatch. Results are expressed as the number of pain behaviors per 5 minute periods (Table 8 and Table 9).

Compound: C[C@]12C=CC(=O)C=C1CC[C@@H]1[C@@H]2[C@@H](O)C[C@@]2(C)[C@H]1CC[C@]2(O)C(=O)CO [Prednisolone]
- Mean number of behaviors per 5 minute block (1 mg/kg, 5 minutes): 224.0 ± 34.1
- Mean number of behaviors per 5 minute block (1 mg/kg, 10 minutes): 27.0 ± 11.7
- Mean number of behaviors per 5 minute block (1 mg/kg, 15 minutes): 18.0 ± 15.2
- Mean number of behaviors per 5 minute block (1 mg/kg, 20 minutes): 115.0 ± 41.9
- Mean number of behaviors per 5 minute block (1 mg/kg, 25 minutes): 172.0 ± 51.1
- Mean number of behaviors per 5 minute block (1 mg/kg, 30 minutes): 178.0 ± 52.0
- Mean number of behaviors per 5 minute block (1 mg/kg, 35 minutes): 174.0 ± 48.7
- Mean number of behaviors per 5 minute block (1 mg/kg, 40 minutes): 207.0 ± 43.9
- Mean number of behaviors per 5 minute block (1 mg/kg, 45 minutes): 197.0 ± 45.3
- Mean number of behaviors per 5 minute block (1 mg/kg, 50 minutes): 192.0 ± 48.4
- Mean number of behaviors per 5 minute block (1 mg/kg, 55 minutes): 113.0 ± 43.2
- Mean number of behaviors per 5 minute block (1 mg/kg, 60 minutes): 92.0 ± 29.7
- Mean number of behaviors per 5 minute block (3 mg/kg, 5 minutes): 218.0 ± 14.7
- Mean number of behaviors per 5 minute block (3 mg/kg, 10 minutes): 15.0 ± 6.7
- Mean number of behaviors per 5 minute block (3 mg/kg, 15 minutes): 6.0 ± 3.4
- Mean number of behaviors per 5 minute block (3 mg/kg, 20 minutes): 68.0 ± 19.8
- Mean number of behaviors per 5 minute block (3 mg/kg, 25 minutes): 208.0 ± 35.5
- Mean number of behaviors per 5 minute block (3 mg/kg, 30 minutes): 214.0 ± 39.8
- Mean number of behaviors per 5 minute block (3 mg/kg, 35 minutes): 254.0 ± 29.2
- Mean number of behaviors per 5 minute block (3 mg/kg, 40 minutes): 269.0 ± 14.2
- Mean number of behaviors per 5 minute block (3 mg/kg, 45 minutes): 258.0 ± 19.9
- Mean number of behaviors per 5 minute block (3 mg/kg, 50 minutes): 221.0 ± 36.1
- Mean number of behaviors per 5 minute block (3 mg/kg, 55 minutes): 198.0 ± 38.1
- Mean number of behaviors per 5 minute block (3 mg/kg, 60 minutes): 133.0 ± 46.8
